pIC50: −log10 of the molar value. Where a name gives a salt, the structure may show the parent alone.
These compounds were tested against T1, proton pump (H+/K+-ATPase) (Sus scrofa, UniProt P19156) (assay: Measurement of inhibitory effects on proton pump (H+/K+-ATPase) activities). Details: hog gastric vesicles, K+-specific H+/K+-ATPase activity, Tris-HCl buffer pH 7.4, 37° C. for 40 minutes, malachite green Pi readout.
T1 construct: Gastric vesicles were prepared from hog stomach via centrifugal separation; from tissue; host or cells: hog stomach (gastric vesicles, method of Rabon et al. 1988)
Assay type: biochemical
How it was run: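 Hog gastric vesicles in 60 mmol/l Tris-HCl pH 7.4 with 0.5% DMSO were treated with compounds at room temperature; reaction was started with 10 μl of 10 mmol/l ATP stock. Released Pi was read at 570 nm, K+-specific activity taken as the ±K+ difference. IC50 from 4-parameter logistic fit.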

T1 sequence (P19156 whole entry): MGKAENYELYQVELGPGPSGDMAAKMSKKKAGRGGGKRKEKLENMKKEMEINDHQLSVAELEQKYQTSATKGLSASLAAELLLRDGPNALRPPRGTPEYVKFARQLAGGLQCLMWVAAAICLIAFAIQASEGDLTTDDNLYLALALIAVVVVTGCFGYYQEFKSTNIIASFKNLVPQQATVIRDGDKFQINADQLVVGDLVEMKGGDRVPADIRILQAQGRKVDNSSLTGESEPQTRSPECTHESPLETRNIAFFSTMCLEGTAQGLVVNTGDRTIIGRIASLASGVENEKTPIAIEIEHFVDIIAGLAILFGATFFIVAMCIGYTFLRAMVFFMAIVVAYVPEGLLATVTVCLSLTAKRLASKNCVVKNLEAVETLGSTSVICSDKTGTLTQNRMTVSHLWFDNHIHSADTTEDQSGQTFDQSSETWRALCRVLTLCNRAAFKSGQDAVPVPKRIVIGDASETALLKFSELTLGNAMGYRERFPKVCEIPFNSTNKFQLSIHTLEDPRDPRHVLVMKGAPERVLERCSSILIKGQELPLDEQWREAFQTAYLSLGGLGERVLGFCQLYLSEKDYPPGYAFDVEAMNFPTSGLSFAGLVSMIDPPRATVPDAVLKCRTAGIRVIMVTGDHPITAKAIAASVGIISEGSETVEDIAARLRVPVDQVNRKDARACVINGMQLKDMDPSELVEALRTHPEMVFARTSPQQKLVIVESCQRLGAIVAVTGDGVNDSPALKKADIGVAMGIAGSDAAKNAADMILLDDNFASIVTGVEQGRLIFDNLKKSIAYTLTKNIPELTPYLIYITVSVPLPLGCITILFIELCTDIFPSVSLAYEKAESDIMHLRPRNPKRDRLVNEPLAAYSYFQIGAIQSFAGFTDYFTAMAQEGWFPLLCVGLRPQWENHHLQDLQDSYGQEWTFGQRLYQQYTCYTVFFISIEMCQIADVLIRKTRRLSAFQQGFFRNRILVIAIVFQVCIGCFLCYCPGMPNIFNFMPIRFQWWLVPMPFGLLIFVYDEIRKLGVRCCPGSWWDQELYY
T1 sequence (P18434 whole entry partner): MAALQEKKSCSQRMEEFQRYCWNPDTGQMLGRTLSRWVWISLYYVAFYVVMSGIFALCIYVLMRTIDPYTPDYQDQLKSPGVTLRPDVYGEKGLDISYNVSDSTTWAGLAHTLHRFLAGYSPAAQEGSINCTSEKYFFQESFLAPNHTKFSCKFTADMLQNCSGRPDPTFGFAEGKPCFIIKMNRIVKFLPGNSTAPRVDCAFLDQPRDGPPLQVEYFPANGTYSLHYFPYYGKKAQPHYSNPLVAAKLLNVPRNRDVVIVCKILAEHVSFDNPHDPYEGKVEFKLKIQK

SMILES | pIC50
CNCc1cn(S(=O)(=O)c2cccnc2)c2cc(-c3ccnn3C)ccc12 [Example 250, N-methyl-1-(6-(1-methyl-1H-pyrazol-5-yl)-1-(pyridin-3-ylsulfonyl)-1H-indol-3-yl)methanamine] | 4.40
CNCc1cn(S(=O)(=O)c2cccnc2)c2cc(-c3ccc(OC)cc3)ccc12 [Example 251, 1-(6-(4-methoxyphenyl)-1-(pyridin-3-ylsulfonyl)-1H-indol-3-yl)-N-methylmethanamine hydrochloride] | 5.59
CNCc1cn(S(=O)(=O)c2cccnc2)c2cc(-c3ccc(C)cc3F)ccc12 [Example 252, 1-(6-(2-fluoro-4-methylphenyl)-1-(pyridin-3-ylsulfonyl)-1H-indol-3-yl)-N-methylmethanamine hydrochloride] | 6.00
CNCc1cn(S(=O)(=O)c2cccnc2)c2cc(-c3ccc(C)cc3Cl)ccc12 [Example 253, 1-(6-(2-chloro-4-methylphenyl)-1-(pyridin-3-ylsulfonyl)-1H-indol-3-yl)-N-methylmethanamine hydrochloride] | 6.31
CNCc1cn(S(=O)(=O)c2cccnc2)c2cc(-c3cccnc3C(F)(F)F)ccc12 [Example 254, N-methyl-1-(1-(pyridin-3-ylsulfonyl)-6-(2-(trifluoromethyl)pyridin-3-yl)-1H-indol-3-yl)methanamine hydrochloride] | 5.04
CNCc1cn(S(=O)(=O)c2cccnc2)c2cc(-c3ccc(F)nc3)ccc12 [Example 255, 1-(6-(6-fluoropyridin-3-yl)-1-(pyridin-3-ylsulfonyl)-1H-indol-3-yl)-N-methylmethanamine hydrochloride] | 4.93
CNCc1cn(S(=O)(=O)c2cccnc2)c2cc(-c3ccnc(F)c3)ccc12 [Example 256, 1-(6-(2-fluoropyridin-4-yl)-1-(pyridin-3-ylsulfonyl)-1H-indol-3-yl)-N-methylmethanamine hydrochloride] | 4.70
CNCc1cn(S(=O)(=O)c2cccnc2)c2cc(-c3cnc(F)c(C)c3)ccc12 [Example 257, 1-(6-(6-fluoro-5-methylpyridin-3-yl)-1-(pyridin-3-ylsulfonyl)-1H-indol-3-yl)-N-methylmethanamine hydrochloride] | 4.85
CNCc1cn(S(=O)(=O)c2cccnc2)c2cc(-c3cncnc3)ccc12 [Example 258, N-methyl-1-(1-(pyridin-3-ylsulfonyll)-6-(pyrimidin-5-yl)-1H-indol-3-yl)methanamine hydrochloride] | 4.70
CNCc1cn(S(=O)(=O)c2cccnc2)c2cc(-c3cnc(OC)nc3)ccc12 [Example 259, 1-(6-(2-methoxypyrimidin-5-yl)-1-(pyridin-3-ylsulfonyl)-1H-indol-3-yl)-N-methylmethanamine hydrochloride] | 4.40
CNCc1cn(S(=O)(=O)c2cccnc2)c2cc(N3CCCc4cc(C)ccc43)ccc12 [Example 260, N-methyl-1-(6-(6-methyl-3,4-dihydroquinolin-1(2H)-yl)-1-(pyridin-3-ylsulfonyl)-1H-indol-3-yl)methanamine hydrochloride] | 6.42
CNCc1cn(S(=O)(=O)c2cccc(OC(F)F)c2)c2cc(-c3cccnc3C(F)(F)F)ccc12 [Example 261, 1-(1-((3-(difluoromethoxy)phenyl)sulfonyl)-6-(2-(trifluoromethyl)pyridin-3-yl)-1H-indol-3-yl)-N-methylmethanamine hydrochloride] | 5.03
CNCc1cn(S(=O)(=O)c2cccc(OC(F)F)c2)c2cc(-c3ccnc(F)c3)ccc12 [Example 262, 1-(1-((3-(difluoromethoxy)phenyl)sulfonyl)-6-(2-fluoropyridin-4-yl)-1H-indol-3-yl)-N-methylmethanamine hydrochloride] | 5.07
CNCc1cn(S(=O)(=O)c2cccc(OC(F)F)c2)c2cc(-c3cnc(F)c(C)c3)ccc12 [Example 263, 1-(1-((3-(difluoromethoxy)phenyl)sulfonyl)-6-(6-fluoro-5-methylpyridin-3-yl)-1H-indol-3-yl)-N-methylmethanamine hydrochloride] | 4.22
CNCc1cn(S(=O)(=O)c2cccc(OC(F)F)c2)c2cc(-c3cncnc3)ccc12 [Example 264, 1-(1-((3-(difluoromethoxy)phenyl)sulfonyl)-6-(pyrimidin-5-yl)-1H-indol-3-yl)-N-methylmethanamine hydrochloride] | 4.70
CNCc1cn(S(=O)(=O)c2ccc(OC(F)F)cc2)c2cc(-c3cncnc3)ccc12 [Example 265, 1-(1-((4-(difluoromethoxy)phenyl)sulfonyl)-6-(pyrimidin-5-yl)-1H-indol-3-yl)-N-methylmethanamine hydrochloride] | 4.40
CNCc1cn(S(=O)(=O)c2cccc(OC(F)F)c2)c2cc(-c3cnc(OC)nc3)ccc12 [Example 266, 1-(1-((3-(difluoromethoxy)phenyl)sulfonyl)-6-(2-methoxypyrimidin-5-yl)-1H-indol-3-yl)-N-methylmethanamine hydrochloride] | 4.35

SMILES | pIC50
CNCc1cn(S(=O)(=O)c2cccnc2)c2cc(Cc3ccccc3)ccc12 [Example 268, 1-(6-benzyl-(pyridin-3-ylsulfonyl)-1H-indol-3-yl)-N-methylmethanamine hydrochloride] | 6.12
CNCc1cn(S(=O)(=O)c2cccnc2)c2cc(Cc3ccccc3F)ccc12 [Example 269, 1-(6-(2-fluorobenzyl)-1-(pyridin-3-ylsulfonyl)-1H-indol-3-yl)-N-methylmethanamine hydrochloride] | 6.11
CNCc1cn(S(=O)(=O)c2cccnc2)c2cc(Cc3ccc(OC(F)(F)F)cc3)ccc12 [Example 271, N-methyl-1-(1-(pyridin-3-ylsulfonyl)-6-(4-(trifluoromethoxy)benzyl)-1H-indol-3-yl)methanamine hydrochloride] | 5.40
CNCc1cn(S(=O)(=O)c2cccnc2)c2cc(Cc3ccc(Cl)cc3F)ccc12 [Example 274, 1-(6-(4-chloro-2-fluorobenzyl)-1-(pyridin-3-ylsulfonyl)-1H-indol-3-yl)-N-methylmethanamine hydrochloride] | 5.93
CNCc1cn(S(=O)(=O)c2cccnc2)c2cc(Cc3ccc(Cl)cc3C(F)(F)F)ccc12 [Example 275, 1-(6-(4-chloro-2-(trifluoromethyl)benzyl)-1-(pyridin-3-ylsulfonyl)-1H-indol-3-yl)-N-methylmethanamine hydrochloride] | 5.75
CNCc1cn(S(=O)(=O)c2cccnc2)c2cc(Cc3ccc(C(F)(F)F)cc3Cl)ccc12 [Example 276, 1-(6-(2-chloro-4-(trifluoromethyl)benzyl)-1-(pyridin-3-ylsulfonyl)-1H-indol-3-yl)-N-methylmethanamine hydrochloride] | 6.17
CNCc1cn(S(=O)(=O)c2cccnc2)c2cc(Cc3ccc(OC)cc3F)ccc12 [Example 277, 1-(6-(2-fluoro-4-methoxybenzyl)-1-(pyridin-3-ylsulfonyl)-1H-indol-3-yl)-N-methylmethanamine hydrochloride] | 6.12
CNCc1cn(S(=O)(=O)c2cccnc2)c2cc(Cc3ccc(OC(F)(F)F)cc3C)ccc12 [Example 278, N-methyl-1-(6-(2-methyl-4-(trifluoromethoxy)benzyl)-1-(pyridin-3-ylsulfonyl)-1H-indol-3-yl)methanamine hydrochloride] | 5.71
CNCc1cn(S(=O)(=O)c2cccnc2)c2cc(Cc3ccc(OC(F)(F)F)cc3F)ccc12 [Example 279, 1-(6-(2-fluoro-4-(trifluoromethoxy)benzyl)-1-(pyridin-3-ylsulfonyl)-1H-indol-3-yl)-N-methylmethanamine hydrochloride] | 5.66
CNCc1cn(S(=O)(=O)c2cccnc2)c2cc(Cc3ccc(OC(F)(F)F)cc3Cl)ccc12 [Example 280, 1-(6-(2-chloro-4-(trifluoromethoxy)benzyl)-1-(pyridin-3-ylsulfonyl)-1H-indol-3-yl)-N-methylmethanamine hydrochloride] | 6.07
CNCc1cn(S(=O)(=O)c2cccnc2)c2cc(Cc3ccc(OC(F)(F)F)cc3OC)ccc12 [Example 281, 1-(6-(2-methoxy-4-(trifluoromethoxy)benzyl)-1-(pyridin-3-ylsulfonyl)-1H-indol-3-yl)-N-methylmethanamine hydrochloride] | 5.73
CNCc1cn(S(=O)(=O)c2cccnc2)c2cc(Cc3cccnc3OC)ccc12 [Example 282, 1-(6-((2-methoxypyridin-3-yl)methyl)-1-(pyridin-3-ylsulfonyl)-1H-indol-3-yl)-N-methylmethanamine hydrochloride] | 5.53
CNCc1cn(S(=O)(=O)c2cccnc2)c2cc(Cc3ccc(C)nc3F)ccc12 [Example 283, 1-(6-((2-fluoro-6-methylpyridin-3-yl)methyl)-1-(pyridin-3-ylsulfonyl)-1H-indol-3-yl)-N-methylmethanamine hydrochloride] | 5.58
CNCc1cn(S(=O)(=O)c2cccnc2)c2cc(Cc3ccc(C)nc3Cl)ccc12 [Example 284, 1-(6-((2-chloro-6-methylpyridin-3-yl)methyl)-1-(pyridin-3-ylsulfonyl)-1H-indol-3-yl)-N-methylmethanamine hydrochloride] | 6.00
CNCc1cn(S(=O)(=O)c2cccnc2)c2cc(Cc3ccc(Cl)nc3Cl)ccc12 [Example 285, 1-(6-((2,6-dichloropyridin-3-yl)methyl)-1-(pyridin-3-ylsulfonyl)-1H-indol-3-yl)-N-methylmethanamine hydrochloride] | 6.19
CNCc1cn(S(=O)(=O)c2cccc(F)c2)c2cc(Cc3ccc(C)c(F)c3F)ccc12 [Example 287, 1-(6-(2,3-difluoro-4-methylbenzyl)-1-((3-fluorophenyl)sulfonyl)-1H-indol-3-yl)-N-methylmethanamine] | 5.78
